Measurements from patent publication US20250340881A1, “PHARMACEUTICAL COMPOSITION FOR TREATING CANCER COMPRISING FOXM1 MUTANT OR FOXM1 SHRNA” (Industry-University Cooperation Foundation Hanyang …, priority 2022, published 2025).

How the values were obtained:
Assay type in all cases: cell-based
A549 lung cancer cells [1] = assay: Transwell migration assay of A549 cells expressing FoxM1 WT or point mutants; conditions: Transwell, 72 hours, control set to 1; TGF-β 5 ng/ml positive control
Method: To examine the effects of FoxM1 WT, phosphorylation, and non-phosphorylated point mutants on the motility of cancer cells, the migration assay was performed in A549 lung cancer cells expressing mutant proteins.
Specifically, 5×10^4 cells of lung cancer cells A549 expressing each of WT, phosphorylation, and non-phosphorylated point mutant of FoxM1 were seeded in an 8.0 μm, 24 well insert, and the inserts were placed in a 24-well plate after medium with 10% fetal bovine serum (FBS) was dispensed in the 24-well plate. For the positive control, 0.5 ml of RPMI1640 (10% FBS) containing 5 ng/ml of TGF-β was used. After 72 hours from cell seeding, 500 μl of 4% paraformaldehyde was dispensed, washed three times with 1×PBS, and stained with 0.05% crystal violet solution for 5 minutes. After 5 minutes, the cells were washed five times with 1×PBS, and the staining intensity was measured using the Odyssey infrared imaging system.
Specifically, 5×10^4 cells of lung cancer cells A549 expressing control and FoxM1 WT were seeded in an 8.0 μm, 24 well insert, and the inserts were placed in a 24-well plate after medium with 10% fetal bovine serum (FBS) was dispensed in the 24-well plate. For the positive control, 0.5 ml of RPMI1640 (10% FBS) containing 5 ng/ml of TGF-β was added and used. After 72 hours from cell seeding, 500 μl of 4% paraformaldehyde was dispensed, washed three times with 1×PBS, and stained with 0.05% crystal violet solution for 5 minutes. After 5 minutes, the cells were washed five times with 1×PBS, and the staining intensity was measured using the Odyssey infrared imaging system.

A549 lung cancer cells [2] = assay: Wound healing assay of A549 cells expressing FoxM1 phosphorylated point mutants; conditions: distance in the control group at 72 h set to 0%
Method: To observe the effects of phosphorylation point mutations on the motility of cancer cells, a wound healing assay was performed in lung cancer cells A549 expressing FoxM1 wild type (WT), phosphorylated point mutants S25E, S361E, and S715E, and a simultaneous triple-point mutation EEE protein.
Specifically, cells expressing the gene of FoxM1 point mutant by the lentivirus system were seeded into 6-well plates at 1×10^5 cells/well each. 24 hours after cell seeding, scratches were made at regular intervals using a 200 μl-pipette tip. In addition, A549 cells treated with mock as a negative control (Mock) and 5 ng/ml of TGF-β as a positive control were used. […] In addition, the distance in the control group at 72 h was set to 0%, and the relative distance was represented as a bar graph (FIG. 4G).

A549 lung cancer cells [3] = assay: Migration assay of TGF-β-treated A549 cells treated with peptide; conditions: TGF-β 5 ng/ml, 48 hours
Method: To determine the effects of treatment of the FoxM1 non-phosphorylated point mutant peptide on cancer cell motility in the metastatic environment treated with TGF-β, a migration assay was performed.
Specifically, 5×10^4 cells of A549 lung cancer cells were seeded in an 8.0 μm, 24 well insert, and the inserts were placed in a 24-well plate after medium with 10% fetal bovine serum (FBS) was dispensed in the 24-well plate. For the positive control, 0.5 ml of RPMI1640 (10% FBS) containing 5 ng/ml of TGF-β was dispensed, and 5 μM of the non-phosphorylated point mutant peptide was treated simultaneously. After 48 hours from cell seeding, 500 μl of 4% paraformaldehyde was dispensed into the plate, and the plate was washed three times with 1×PBS and stained with 0.05% crystal violet solution for 5 minutes. After 5 minutes, the plate was washed with 1×PBS five times, and the stained intensity was measured using the Odyssey infrared imaging system. When the stained intensity of the control group was set to 1, the relative stained intensity of each experimental group was represented in a graph.

TGF-β [reference compound] was tested, and the “cancer cell migration (stained intensity), increase compared to the control group” value (A549 lung cancer cells [1]) was “approximately 4 fold”, the “relative healing distance (motility) at 72 h” value (A549 lung cancer cells [2]) was 51% and the “stained intensity (migration) compared to the control group” value (A549 lung cancer cells [3]) was 4 folds.
